Assay results from patent US20260001922A1, “PEPTIDES TARGETING SODIUM CHANNELS TO TREAT PAIN” (priority 2022, published 2026).
Positions of bridges follow the written chain, without caps; N, C: chain ends. Residues, ends and D or L forms follow the SMILES beside them.

System: thermal nociception in naïve rats
Conditions: 1.6 μg i.t.

For CSCC[C@@H]1NC(=O)[C@H](Cc2c[nH]c3ccccc23)NC(=O)[C@H](CCCCN)NC(=O)[C@H](CCC(N)=O)NC(=O)[C@@H](NC(=O)[C@@H](N)CCC(N)=O)CSSC[C@@H]2NC(=O)[C@@H]3CSSC[C@@H](C(=O)N[C@@H](CCCNC(=N)N)C(=O)N[C@@H](CCCCN)C(=O)N[C@@H](CCC(=O)O)C(=O)N[C@@H](CC(C)C)C(=O)N[C@@H](CC(C)C)C(N)=O)NC(=O)[C@H](Cc4c[nH]c5ccccc45)NC(=O)[C@H](CC(C)C)NC(=O)[C@H](CCCNC(=N)N)NC(=O)[C@H](CSSC[C@H](NC(=O)[C@H]([C@@H](C)O)NC(=O)[C@H](CCC(N)=O)NC1=O)C(=O)N[C@@H](CC(=O)O)C(=O)N[C@@H](CCCCN)C(=O)N[C@@H](CC(=O)O)C(=O)N[C@@H](CCCNC(=N)N)C(=O)N[C@@H](CCCCN)C(=O)N3)NC(=O)[C@H](CCCNC(=N)N)NC(=O)[C@H](Cc1ccccc1)NC(=O)CNC(=O)[C@H](CCC(=O)O)NC2=O [PTx2-3127] (H-QCQKWMQTCDKDRKCCEGFRCRLWCRKELL-NH2; disulfide 2-16, 9-21, 15-25), the motor activity was “did not lame or significantly alter motor activity”.
